Reference: US4939175A, “Use of N,N-dimethyl-1-[1-(4-chlorophenyl)cyclobutyl]-3-methylbutylamine” (priority 1988, dated 1990)
Where two headings read alike, the source gives them in different places.

Assays:
[1] = tested on: depletion of dopamine induced by MPTP in mice whole brain; assay: animal or person; type: in vivo, SlC: ddy strain male mice; conditions: Mus musculus, po, 168 h, read-out: Percentage of the amount of dopamine in the treated group against the amount of dopamine in the non-treated group
[2] = tested on: re-uptake of ^3 H-dopamine; assay: Re-uptake of 3H-dopamine in vitro (synaptosomes, P2 fraction of whole brain); type: biochemical, Std: Wistar strain male rat; conditions: rat brain synaptosomes, 37° C., 20 minutes
Procedure: Effect of the test samples on the re-uptake of ^3 H-dopamine in vitro
P2 fraction was prepared from the whole brain of Std: Wistar strain male rat. […] The obtained mixture was incubated at 37° C. for 20 minutes and then subjected to the suction filtration with Whatman GF/B filter paper.
The obtained filter paper was put in a vial containing 10 ml of toluene type scintillator and its radioactivity was measured by means of liquid scintillation counter. The amount of the specific re-uptake of ^3 H-dopamine was obtained by subtracting the amount of re-uptake at 0° C. as blank.

[3] = tested on: inhibition of conditioned avoidance response induced by reserpine in rats; assay: Inhibition of conditioned avoidance response induced by reserpine in rats; type: in vivo, Std-Wistar male rats; conditions: for Conditioned avoidance response 1 hour after administration of the test sample: reserpine 1 mg/kg, control 2; for Conditioned avoidance response before administration of reserpine: baseline before test sample; for Conditioned avoidance response 18 to 20 hours after administration of reserpine: reserpine 1 mg/kg i.p., before test sample
Procedure: Effect of the test samples on the inhibition of conditioned avoidance response induced by reserpine in rats
Std-Wistar male rats (8 to 9 week age) weighing of 270 to 300 g were fed under the conditions of 23±2° C., 60±10% R.H. and artificial lighting from 7 AM to 7 PM for a week, and then subjected to the test.
The test was carried out by using a shuttle box. The shuttle box used herein was a rectangular box, which was equipped with a buzzer for conditioned stimulus at the upper part and grids of 2 mm in diameter, for non-conditioned stimulus, at intervals of 1 cm on the floor, and divided into two equal sized compartments by a hurdle of 5 cm in height.
The schedule for inducing the conditioned avoidance response was controlled by a computer, and all the observed results of avoidance or escape response were recorded automatically.
The avoidance condition was carried out as follows:
After the conditioned stimulus of the buzzer with sound signal for 5 seconds, the non-conditioned stimulus of the foot shock was given for 5 seconds to rats. Each stimulus was stopped immediately, if the rat jumped over the hurdle to the other compartment during the conditioned or non-conditioned stimulus.
The above-mentioned rats were put on the trials for 25 times. Then the rats were given reserpine (1 mg/kg, intraperitoneally). The rats were tested for 15 times at the time of 18 to 20 hours after the reserpine administration, and then they were divided into several groups ([…]).
The test sample was dissolved in distilled water and administered orally to each group at 24 to 26 hours after the reserpine administration. For reference, distilled water as control sample, and amitriptyline and amantadine as test drugs were used.
At one hour after the test sample administration, the rats were put on the trials for 25 times and the conditioned avoidance responce was compared between the control group (distilled water administration), the test compound-administered group and the test drug-administered groups.

[4] = tested on: depletion of serotonin induced by p-chloroamphetamine; assay: Depletion of serotonin (5-HT) induced by p-chloroamphetamine (whole brain); type: in vivo, SlC:ddy mice; conditions: p-chloroamphetamine 10 mg/kg i.p., control 48 ± 6, **p < 0.01
Procedure: Effect of the test samples on the depletion of serotonin (hereinafter referred to as "5-HT") induced by p-chloroamphetamine
The test sample was administered orally to SlC:ddy made mice and after 60 minutes, p-chloroamphetamine (10 mg/kg) was injected intraperitoneally.
At 6 hours later, the mice were decapitated. The whole brain was rapidly removed and homogenized in 0.06M perchloric acid with N-methylserotonin (10 μg/ml) as an internal standard. The homogenate was centrifuged and then the amount of 5-HT in the supernatant was determined by high performance liquid chromatography with electrochemical detection.
Amitriptyline was used as the reference drug and distilled water was used as control sample.

[5] = tested on: circling behavior in rats with unilateral substantia nigra lesions; assay: Circling behavior in rats with unilateral substantia nigra lesions; type: in vivo, Std: Wistar male rats; conditions: 50 mg/kg oral, 2 hours after; control 0.1 ± 0.4
Procedure: Effect of the test samples on circling behavior in rats with unilateral substantia nigra lesions
Std: Wistar male rats (8 heads/group) were used. The rat with unilateral substantia nigra lesions was made by injecting 8 μg/4 μl of 6-hydroxydopamine to the right side of substantia nigra.
The test sample was administered orally to the rat. At 2 hours later, the number of circling behavior per 10 minutes was counted.
Amantadine was used as the reference drug and distilled water was used as control sample.

[6] = tested on: depletion of norepinephrine induced by 6-hydroxydopamine in rat heart; assay: Depletion of norepinephrine induced by 6-hydroxydopamine in rat heart; type: in vivo, Std: Wistar male rats; conditions: 6-hydroxydopamine 20 mg/kg i.p., control 20 ± 4, non-treatment 425 ± 49, **p < 0.01
Procedure: Effect of the test samples on the depletion of norepinephrine induced by 6-hydroxydopamine in rat heart.
The test sample was administered orally to Std: Wistar male rats and after 30 minutes, 6-hydroxydopamine (20 mg/kg) was injected intraperitoneally.
At 16 hours after injection of 6-hydroxydopamine, the rats were killed. The whole heart was rapidly removed and homogenized in 0.05M perchloric acid with isoproterenol (10 mg/ml) as an internal standard. The homogenate was centrifuged and then the amount of norepinephrine in the supernatant was determined by means of high performance liquid chromatography with electrochemical detection.
Desipramine was used as the reference drug and distilled water was used as control sample.

[7] = Acute toxicity, oral, mice; design: species or system SlC:ddy male mice; conditions: mouse, in vivo, read-out: Number of dead mice per 10 mice
Procedure: SlC:ddy male mice (10 heads/group) were used.
After the oral administration of the test smaple, desipramine was used as the test drug, to the mice, the number of the dead mice was counted at 0.5, 1, 2, 4, 18 and 24 hours respectively after the oral administration.

[8] = Experiment I, 10 mg/kg oral, MPTP 50 mg/kg s.c., control 71 ± 11, *P < 0.05, **P < 0.01
[9] = Experiment I, 30 mg/kg oral, MPTP 50 mg/kg s.c., control 71 ± 11, *P < 0.05, **P < 0.01

CNCCCC12CCC(c3ccccc31)c1ccccc12 [Maprotiline, maprotiline]
response vs control in vivo at 10 mg/kg [1]: 65 ± 17%
response vs control in vivo at 30 mg/kg [1]: 74 ± 17%

CN(C)CCCN1c2ccccc2CCc2ccccc21 [Imipramine, imipramine]
IC50 ([2]; Experiment II): 15 µM

CN(C)CCC=C1c2ccccc2CCc2ccccc21 [Amitriptyline, amitriptyline]
Conditioned avoidance response 1 hour after administration of the test sample ([3]; 10 mg/kg oral): 1%
Conditioned avoidance response 1 hour after administration of the test sample ([3]; 40 mg/kg oral): 0%
Conditioned avoidance response before administration of reserpine ([3]; 10 mg/kg group): 93%
Conditioned avoidance response before administration of reserpine ([3]; 40 mg/kg group): 94%
Conditioned avoidance response 18 to 20 hours after administration of reserpine ([3]; 10 mg/kg group): 1%
Conditioned avoidance response 18 to 20 hours after administration of reserpine ([3]; 40 mg/kg group): 7%
Percentages of the amount of 5-HT in the treated group against the amount of 5-HT in the non-treated group ([4]; 10 mg/kg oral): 50 ± 4%
Percentages of the amount of 5-HT in the treated group against the amount of 5-HT in the non-treated group ([4]; 30 mg/kg oral): 56 ± 10%
Percentages of the amount of 5-HT in the treated group against the amount of 5-HT in the non-treated group ([4]; 90 mg/kg oral): 92 ± 8%
response vs control in vivo at 10 mg/kg [1, 8]: 81 ± 15%
response vs control in vivo at 30 mg/kg [1, 9]: 77 ± 15%
IC50 ([2]; Experiment I): 7.7 µM
IC50 ([2]; Experiment II): 8.2 µM

CN1CCN2c3ccccc3Cc3ccccc3C2C1 (stereo not drawn) [Mianserin, mianserin]
response vs control in vivo at 10 mg/kg [1]: 72 ± 16%
response vs control in vivo at 30 mg/kg [1]: 69 ± 8%

NC12CC3CC(CC(C3)C1)C2 [Amantadine, amantadine]
Conditioned avoidance response 1 hour after administration of the test sample ([3]; 10 mg/kg oral): 2%
Conditioned avoidance response 1 hour after administration of the test sample ([3]; 50 mg/kg oral): 38%
Conditioned avoidance response before administration of reserpine ([3]; 10 mg/kg group): 94%
Conditioned avoidance response before administration of reserpine ([3]; 50 mg/kg group): 95%
Conditioned avoidance response 18 to 20 hours after administration of reserpine ([3]; 10 mg/kg group): 3%
Conditioned avoidance response 18 to 20 hours after administration of reserpine ([3]; 50 mg/kg group): 3%
Number of circling behavior per 10 min. [5]: 0.4 ± 0.7 per 10 min.
response vs control in vivo at 10 mg/kg ([1]; Experiment II, 10 mg/kg oral, MPTP 50 mg/kg s.c., control 88 ± 20, *P < 0.05): 77 ± 21%
response vs control in vivo at 30 mg/kg ([1]; Experiment II, 30 mg/kg oral, MPTP 50 mg/kg s.c., control 88 ± 20, *P < 0.05): 64 ± 16%

CN(C)CC/C=C1\c2ccccc2CSc2ccccc21 [Dosulepin, dosulepin]
response vs control in vivo at 10 mg/kg [1, 8]: 70 ± 13%
response vs control in vivo at 30 mg/kg [1, 9]: 77 ± 12%

CNCCCN1c2ccccc2CCc2ccccc21 [Desipramine, desipramine]
Amount of Norepinephrine ([6]; 0.625 mg/kg oral): 35 ± 4 ng/g
Amount of Norepinephrine ([6]; 1.25 mg/kg oral): 74 ± 26 ng/g
Amount of Norepinephrine ([6]; 2.5 mg/kg oral): 211 ± 79 ng/g
response vs control in vivo at 10 mg/kg [1, 8]: 74 ± 15%
response vs control in vivo at 30 mg/kg [1, 9]: 79 ± 18%
mortality at 0.5 h ([7]; 200 mg/kg oral): 0%
mortality at 1 h ([7]; 200 mg/kg oral): 0%
mortality at 2 h ([7]; 200 mg/kg oral): 0%
mortality at 4 h ([7]; 200 mg/kg oral): 0%
mortality at 18 h ([7]; 200 mg/kg oral): 0%
mortality at 24 h ([7]; 200 mg/kg oral): 0%
mortality at 0.5 h ([7]; 800 mg/kg oral): 100%
mortality at 1 h ([7]; 800 mg/kg oral): 100%
mortality at 2 h ([7]; 800 mg/kg oral): 100%
mortality at 4 h ([7]; 800 mg/kg oral): 100%
mortality at 18 h ([7]; 800 mg/kg oral): 100%
mortality at 24 h ([7]; 800 mg/kg oral): 100%

CN(C)CCCN1c2ccccc2CCc2ccc(Cl)cc21 [Clomipramine, clomipramine]
response vs control in vivo at 10 mg/kg [1]: 74 ± 13%
response vs control in vivo at 30 mg/kg [1]: 74 ± 14%

CN[C@@H](C)Cc1ccccc1 [Methamphetamine, methamphetamine]
response vs control in vivo at 3 mg/kg ([1]; Experiment I, 3 mg/kg oral, MPTP 50 mg/kg s.c., control 71 ± 11, *P < 0.05, **P < 0.01): 97 ± 14%
response vs control in vivo at 3 mg/kg ([1]; Experiment II, 3 mg/kg oral, MPTP 50 mg/kg s.c., control 88 ± 20, *P < 0.05): 102 ± 21%
response vs control in vivo at 3 mg/kg [1]: 91 ± 20%
